Measured values: publication PMC7614683, “A small molecule PI3Kα activator for cardioprotection and neuroregeneration” (Nature, 2023)
Like-named read-outs stand apart in the source and are kept apart here.

Experiments:
Test in all cases: SelectScreen Z-LYTE kinase activity assay (SI Table 6)
Format in all cases: biochemical
[1] = molecular target: protein kinases of the Z-LYTE panel (Homo sapiens, UniProt P31751)
Summary of the method: (§1)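 A single compound concentration of 1 μM was profiled in the vendor's Adapta, Lantha and Z-LYTE kinase assays. In gel-based follow-ups with 200 μM compound, phosphorylation was resolved on Phos-tag SDS-PAGE and quantified by Coomassie. The ATM run used 1 mM ATP with GST-p53 for 30 min, and the mTORC1 run used 250 μM ATP with 4E-BP1 for 3 h.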

[2] = molecular target: T1, protein kinases of the Z-LYTE panel (Homo sapiens, UniProt P54760)
T1 sequence (P54760 16-987): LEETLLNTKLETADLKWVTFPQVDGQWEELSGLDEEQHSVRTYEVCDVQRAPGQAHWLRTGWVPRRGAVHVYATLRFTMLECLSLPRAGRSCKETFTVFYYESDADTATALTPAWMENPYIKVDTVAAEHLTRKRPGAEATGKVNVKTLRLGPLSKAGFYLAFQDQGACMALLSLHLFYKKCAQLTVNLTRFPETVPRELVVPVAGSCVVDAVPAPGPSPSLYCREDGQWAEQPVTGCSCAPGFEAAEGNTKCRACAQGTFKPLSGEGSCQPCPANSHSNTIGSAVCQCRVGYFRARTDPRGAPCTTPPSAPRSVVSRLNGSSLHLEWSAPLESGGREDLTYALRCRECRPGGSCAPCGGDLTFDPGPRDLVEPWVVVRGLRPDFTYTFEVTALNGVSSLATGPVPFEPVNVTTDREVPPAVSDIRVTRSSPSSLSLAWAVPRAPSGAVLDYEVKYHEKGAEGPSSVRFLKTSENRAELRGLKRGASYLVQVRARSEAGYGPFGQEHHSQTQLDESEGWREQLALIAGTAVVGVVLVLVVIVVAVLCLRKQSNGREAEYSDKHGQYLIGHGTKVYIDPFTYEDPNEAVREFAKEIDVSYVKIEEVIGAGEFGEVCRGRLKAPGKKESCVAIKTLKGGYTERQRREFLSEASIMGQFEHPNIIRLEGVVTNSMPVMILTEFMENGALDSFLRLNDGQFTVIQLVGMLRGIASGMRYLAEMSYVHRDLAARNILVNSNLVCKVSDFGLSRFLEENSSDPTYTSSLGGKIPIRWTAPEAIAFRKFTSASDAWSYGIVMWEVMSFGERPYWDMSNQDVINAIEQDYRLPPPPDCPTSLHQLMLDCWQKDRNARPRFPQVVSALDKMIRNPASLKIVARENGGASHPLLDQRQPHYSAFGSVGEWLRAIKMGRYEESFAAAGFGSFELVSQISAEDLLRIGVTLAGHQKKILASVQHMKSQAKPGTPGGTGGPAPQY
Summary of the method: as §1

[3] = molecular target: protein kinases of the Z-LYTE panel (Homo sapiens, UniProt P00533)
Chain of protein kinases of the Z-LYTE panel (Homo sapiens, UniProt P00533) (P00533 25-1210): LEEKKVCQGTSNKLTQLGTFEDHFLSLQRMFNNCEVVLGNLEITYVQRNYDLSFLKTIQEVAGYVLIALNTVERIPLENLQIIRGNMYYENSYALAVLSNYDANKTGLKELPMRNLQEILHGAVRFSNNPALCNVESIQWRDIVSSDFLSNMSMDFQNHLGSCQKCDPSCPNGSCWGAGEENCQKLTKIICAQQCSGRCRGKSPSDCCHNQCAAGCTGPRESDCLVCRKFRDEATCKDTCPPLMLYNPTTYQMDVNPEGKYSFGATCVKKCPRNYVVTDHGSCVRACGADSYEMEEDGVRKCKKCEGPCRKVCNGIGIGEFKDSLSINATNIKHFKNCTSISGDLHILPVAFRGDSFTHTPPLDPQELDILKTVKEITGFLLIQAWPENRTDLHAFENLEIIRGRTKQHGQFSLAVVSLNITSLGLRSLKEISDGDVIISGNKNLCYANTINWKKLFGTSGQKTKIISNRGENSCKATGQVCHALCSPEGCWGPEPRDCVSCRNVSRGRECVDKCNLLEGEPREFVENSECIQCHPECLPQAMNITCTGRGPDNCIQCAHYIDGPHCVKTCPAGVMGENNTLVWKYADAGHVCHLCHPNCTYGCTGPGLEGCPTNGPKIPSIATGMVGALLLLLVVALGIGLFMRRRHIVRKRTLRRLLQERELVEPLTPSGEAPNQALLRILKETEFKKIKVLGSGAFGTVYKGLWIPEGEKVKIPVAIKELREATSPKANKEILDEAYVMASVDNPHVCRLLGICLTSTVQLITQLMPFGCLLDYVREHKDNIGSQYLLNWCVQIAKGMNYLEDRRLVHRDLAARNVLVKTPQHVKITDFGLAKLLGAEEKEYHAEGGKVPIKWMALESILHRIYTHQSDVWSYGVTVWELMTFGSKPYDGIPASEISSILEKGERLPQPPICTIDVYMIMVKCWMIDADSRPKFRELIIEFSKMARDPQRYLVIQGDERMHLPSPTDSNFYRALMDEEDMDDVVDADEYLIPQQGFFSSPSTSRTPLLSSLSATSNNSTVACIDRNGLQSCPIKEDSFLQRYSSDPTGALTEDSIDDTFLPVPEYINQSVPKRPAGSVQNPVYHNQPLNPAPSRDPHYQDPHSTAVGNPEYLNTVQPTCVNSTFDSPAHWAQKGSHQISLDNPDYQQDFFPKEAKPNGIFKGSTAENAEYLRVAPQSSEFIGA
Summary of the method: as §1

[4] = molecular target: protein kinases of the Z-LYTE panel (Homo sapiens, UniProt P06241)
Chain of protein kinases of the Z-LYTE panel (Homo sapiens, UniProt P06241) (P06241 whole entry): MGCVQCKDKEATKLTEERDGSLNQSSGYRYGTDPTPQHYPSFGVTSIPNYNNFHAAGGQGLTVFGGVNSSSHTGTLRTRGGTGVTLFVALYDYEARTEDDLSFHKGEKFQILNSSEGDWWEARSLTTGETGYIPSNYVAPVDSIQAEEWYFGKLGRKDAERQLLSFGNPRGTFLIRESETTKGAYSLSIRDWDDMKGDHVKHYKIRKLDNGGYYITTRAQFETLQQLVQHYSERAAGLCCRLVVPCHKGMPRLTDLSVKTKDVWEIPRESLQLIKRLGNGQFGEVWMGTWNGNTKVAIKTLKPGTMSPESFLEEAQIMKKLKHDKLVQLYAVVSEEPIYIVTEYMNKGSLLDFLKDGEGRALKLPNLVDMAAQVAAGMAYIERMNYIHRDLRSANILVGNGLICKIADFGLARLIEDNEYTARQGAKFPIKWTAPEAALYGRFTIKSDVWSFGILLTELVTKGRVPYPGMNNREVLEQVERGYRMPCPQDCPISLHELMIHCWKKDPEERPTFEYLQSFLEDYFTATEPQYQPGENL
Summary of the method: as §1

[5] = molecular target: protein kinases of the Z-LYTE panel (Homo sapiens, UniProt P49760)
Chain of protein kinases of the Z-LYTE panel (Homo sapiens, UniProt P49760) (P49760 whole entry): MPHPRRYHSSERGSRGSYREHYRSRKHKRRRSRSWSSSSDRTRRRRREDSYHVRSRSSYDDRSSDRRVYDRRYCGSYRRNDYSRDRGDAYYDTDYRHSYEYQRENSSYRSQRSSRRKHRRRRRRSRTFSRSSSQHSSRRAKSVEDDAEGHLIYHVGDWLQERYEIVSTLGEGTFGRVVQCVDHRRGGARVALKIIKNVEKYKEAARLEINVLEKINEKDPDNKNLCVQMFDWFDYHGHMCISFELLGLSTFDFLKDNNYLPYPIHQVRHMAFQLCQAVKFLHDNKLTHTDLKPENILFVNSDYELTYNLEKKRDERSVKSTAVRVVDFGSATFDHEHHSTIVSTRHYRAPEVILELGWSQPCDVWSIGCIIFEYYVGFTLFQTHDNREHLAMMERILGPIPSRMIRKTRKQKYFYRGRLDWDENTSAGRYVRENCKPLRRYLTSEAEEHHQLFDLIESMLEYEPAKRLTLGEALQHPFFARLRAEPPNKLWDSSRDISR
Summary of the method: as §1

[6] = molecular target: protein kinases of the Z-LYTE panel (Homo sapiens, UniProt P53350)
Chain of protein kinases of the Z-LYTE panel (Homo sapiens, UniProt P53350) (P53350 whole entry): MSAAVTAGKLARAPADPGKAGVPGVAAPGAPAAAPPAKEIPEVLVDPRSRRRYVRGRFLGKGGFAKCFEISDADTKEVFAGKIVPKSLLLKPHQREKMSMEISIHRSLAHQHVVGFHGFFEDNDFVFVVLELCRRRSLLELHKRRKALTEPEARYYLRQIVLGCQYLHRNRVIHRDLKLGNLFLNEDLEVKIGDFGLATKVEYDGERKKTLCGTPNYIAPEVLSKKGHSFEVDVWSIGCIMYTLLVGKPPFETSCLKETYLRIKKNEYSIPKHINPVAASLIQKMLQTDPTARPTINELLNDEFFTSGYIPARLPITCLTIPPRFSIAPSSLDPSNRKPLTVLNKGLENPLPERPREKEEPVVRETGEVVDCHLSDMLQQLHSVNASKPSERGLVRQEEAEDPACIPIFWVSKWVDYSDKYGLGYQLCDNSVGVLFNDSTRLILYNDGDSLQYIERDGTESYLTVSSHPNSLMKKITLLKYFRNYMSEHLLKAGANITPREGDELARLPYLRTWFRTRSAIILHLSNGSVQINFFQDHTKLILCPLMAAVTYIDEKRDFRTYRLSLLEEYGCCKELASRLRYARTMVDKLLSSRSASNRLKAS
Summary of the method: as §1

[7] = molecular target: T2, protein kinases of the Z-LYTE panel (Homo sapiens, UniProt P36896)
T2 sequence (P36896 24-505): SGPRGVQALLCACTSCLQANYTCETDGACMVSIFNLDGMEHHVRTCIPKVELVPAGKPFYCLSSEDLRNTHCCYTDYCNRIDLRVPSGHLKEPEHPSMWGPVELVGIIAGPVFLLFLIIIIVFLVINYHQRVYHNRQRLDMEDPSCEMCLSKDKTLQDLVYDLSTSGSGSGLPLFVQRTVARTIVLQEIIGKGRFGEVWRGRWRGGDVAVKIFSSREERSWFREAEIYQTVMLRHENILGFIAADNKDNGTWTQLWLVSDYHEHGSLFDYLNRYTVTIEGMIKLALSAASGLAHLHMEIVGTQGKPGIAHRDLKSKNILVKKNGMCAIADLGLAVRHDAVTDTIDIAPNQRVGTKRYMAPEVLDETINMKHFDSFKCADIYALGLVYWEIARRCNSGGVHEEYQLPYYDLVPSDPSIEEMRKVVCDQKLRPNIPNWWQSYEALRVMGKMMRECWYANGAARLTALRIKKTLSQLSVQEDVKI
Summary of the method: as §1

Chain of protein kinases of the Z-LYTE panel (Homo sapiens, UniProt P31751) (P31751 whole entry): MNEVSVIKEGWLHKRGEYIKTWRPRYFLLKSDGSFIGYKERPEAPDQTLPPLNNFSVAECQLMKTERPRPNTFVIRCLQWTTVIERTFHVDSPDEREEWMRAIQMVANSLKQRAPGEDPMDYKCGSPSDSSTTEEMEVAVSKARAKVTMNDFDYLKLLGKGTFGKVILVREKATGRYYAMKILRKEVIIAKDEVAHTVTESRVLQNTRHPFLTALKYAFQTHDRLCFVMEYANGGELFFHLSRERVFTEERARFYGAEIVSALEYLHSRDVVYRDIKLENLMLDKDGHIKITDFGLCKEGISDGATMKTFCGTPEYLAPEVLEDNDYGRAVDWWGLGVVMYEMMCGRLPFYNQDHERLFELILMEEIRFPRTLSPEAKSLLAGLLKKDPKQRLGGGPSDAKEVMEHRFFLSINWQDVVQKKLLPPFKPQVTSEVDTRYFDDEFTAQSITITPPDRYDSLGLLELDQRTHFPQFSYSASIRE

Question: What does the source list for `CCN1CCN(c2ccc(Nc3cc(Nc4cccc5c4N(C(C)=O)CC5)ccn3)cc2)CC1` [Compound 1938]?
Answer: inhibition at 1 µM ([1]; read-out: % Inhibition Point 1): 0.378%; inhibition at 1 µM ([1]; read-out: % Inhibition Point 2): 0.753%; inhibition at 1 µM ([1]; read-out: % Inhibition mean): 0.565%; inhibition at 1 µM ([2]; read-out: % Inhibition Point 1): 10%; inhibition at 1 µM ([2]; read-out: % Inhibition Point 2): -1.75%; inhibition at 1 µM ([2]; read-out: % Inhibition mean): 4%; inhibition at 1 µM ([3]; read-out: % Inhibition Point 1): 18%; inhibition at 1 µM ([3]; read-out: % Inhibition Point 2): 17%; inhibition at 1 µM ([3]; read-out: % Inhibition mean): 18%; inhibition at 1 µM ([4]; read-out: % Inhibition Point 1): 6%; inhibition at 1 µM ([4]; read-out: % Inhibition Point 2): 7%; inhibition at 1 µM ([4]; read-out: % Inhibition mean): 6.46%; inhibition at 1 µM ([5]; read-out: % Inhibition Point 1): 2.33%; inhibition at 1 µM ([5]; read-out: % Inhibition Point 2): 1.66%; inhibition at 1 µM ([5]; read-out: % Inhibition mean): 2%; inhibition at 1 µM ([6]; read-out: % Inhibition Point 1): 2.86%; inhibition at 1 µM ([6]; read-out: % Inhibition Point 2): 3.28%; inhibition at 1 µM ([6]; read-out: % Inhibition mean): 3%; inhibition at 1 µM ([7]; read-out: % Inhibition Point 1): -27%; inhibition at 1 µM ([7]; read-out: % Inhibition Point 2): -3%; inhibition at 1 µM ([7]; read-out: % Inhibition mean): -15%
